Assay results as given in patent EP0396400A1, “Microbial transformation product” (Merck & Co., Inc., priority 1989, dated 1990).

Tested on: mouse T lymphocytes
Experiment: T-cell proliferation assay (ionomycin plus PMA induced T-cell stimulation, tritiated thymidine uptake)
Assay type: cell-based, C57B1/6 mice
Details: T-lymphocyte, 10 ng/ml, standard
Protocol: The principle of this assay is to measure the proliferation of mouse T lymphocytes stimulated with the combination of ionomycin plus PMA. A positive sample in this assay will inhibit T-cell proliferation, as indicated by reduced tritiated thymidine uptake.
Cells were pelleted by centrifugation at 1500 rpm for 8 minutes. Contaminating red cells were removed by treating the pellet with ammonium chloride lysing buffer (GIBCO) for 2 minutes at 4°C. Cold medium was added and cells were again centrifuged at 1500 rpm for 8 minutes. T lymphocytes were then isolated by separation of the cell suspension on nylon wool columns as follows: Nylon wool columns were prepared by packing approximately 4 grams of washed and dried nylon wool into 20 ml plastic syringes. The columns were sterilized by autoclaving at 250°F for 30 minutes. […]
The cell suspension was immediately distributed into 96 well flat-bottom microculture plates (Costar) at 200 µl/well. […] The proliferation of T lymphocytes was assessed by measurement of tritiated thymidine incorporation. […] Radioactivity of filter discs corresponding to individual wells was measured by standard liquid scintillation counting methods (Betacounter). Mean counts per minute of replicate wells were calculated and the results expressed as percent inhibition of tritiated thymidine uptake (proliferation) as follows: [formula]

C=CC[C@@H]1/C=C(\C)C[C@H](C)C[C@H](OC)[C@H]2O[C@@](O)(C(=O)C(=O)N3CCCC[C@H]3C(=O)O[C@H](/C(C)=C/[C@@H]3CC[C@@H](O)[C@H](OC)C3)[C@H](C)[C@@H](O)CC1=O)[C@H](C)C[C@@H]2OC [L-679,934]
inhibition at 0.01 µg/mL: 99%
